In brackets after ≈: the same amount, converted by molar mass. Read-outs that look alike come from different tables or passages of the source.
Columns and labels:
[1] = target: human MAP4K4 kinase domain (Homo sapiens (Human), UniProt O95819); assay: MAP4K4 kinase activity, CisBio HTRF Transcreener ADP assay; type: biochemical
Summary of the method: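 Kinase activity followed by HTRF Transcreener ADP detection: enzyme-generated ADP competes with d2-labelled ADP for Eu3+-cryptate anti-ADP antibody, read ratiometrically at 665/620 nm. IC50 values reported as categories.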

[2] = tested on: mice undergoing experimental myocardial infarction; assay: Experimental myocardial infarction in mice (infarct size, TUNEL staining); type: in vivo; conditions: for In vivo efficacy (infarct size/area at risk), reduction: mice, experimental myocardial infarction; for reduction in infarct size as a proportion of the area at ischemic risk: 50 mg kg−1 twice by gavage
Method: To test if target validation and compound development in hiPSC-CMs might predict success in a whole-animal context, mice undergoing experimental myocardial infarction were treated with Ex-58 or the vehicle control (FIG. 9). […] Treatment was begun either 20 min prior to ischemia (FIG. 9D), or 1 h after reperfusion injury (FIG. 9E, F), the latter having greater relevance to potential clinical benefits.

Formulated solubility = type: physicochemical
Cyp 2C9 = Cyp 2C9 (Homo sapiens (Human), UniProt P11712); assay: Cyp Inhibition: 2C9; type: in vitro ADME
[3] = Resistance to degradation in hepatocyte microsomes (Heps); type: in vitro ADME
Cyp = Cyp Inhibition; type: in vitro ADME
H9c2 cardiomyocytes = assay: Protection of H9c2 cardiomyocytes; type: cell-based; conditions: for EC50: Rattus norvegicus, H9c2
[4] = Plasma protein binding (PPB); type: in vitro ADME; conditions: for fraction unbound: plasma
[5] = tested on: CorV.4U cardiomyocytes (hiPSC-CMs); assay: Protection of CorV.4U cardiomyocytes from H2O2 or menadione (luminescent cell viability assay, human cardiac troponin assay); type: cell-based; conditions: for EC50: Homo sapiens, Cardiomyocyte
From the text: To substantiate the hypothesis that pharmacological inhibition of MAP4K4 would confer resistance to cell death in human cardiomyocytes, cytoprotection was next assessed using hiPSC-CMs.

FLT3 = FLT3 (Homo sapiens (Human), UniProt P36888); assay: Kinase selectivity panel: FLT3; type: biochemical
Chain of FLT3 (P36888 27-993, species assumed): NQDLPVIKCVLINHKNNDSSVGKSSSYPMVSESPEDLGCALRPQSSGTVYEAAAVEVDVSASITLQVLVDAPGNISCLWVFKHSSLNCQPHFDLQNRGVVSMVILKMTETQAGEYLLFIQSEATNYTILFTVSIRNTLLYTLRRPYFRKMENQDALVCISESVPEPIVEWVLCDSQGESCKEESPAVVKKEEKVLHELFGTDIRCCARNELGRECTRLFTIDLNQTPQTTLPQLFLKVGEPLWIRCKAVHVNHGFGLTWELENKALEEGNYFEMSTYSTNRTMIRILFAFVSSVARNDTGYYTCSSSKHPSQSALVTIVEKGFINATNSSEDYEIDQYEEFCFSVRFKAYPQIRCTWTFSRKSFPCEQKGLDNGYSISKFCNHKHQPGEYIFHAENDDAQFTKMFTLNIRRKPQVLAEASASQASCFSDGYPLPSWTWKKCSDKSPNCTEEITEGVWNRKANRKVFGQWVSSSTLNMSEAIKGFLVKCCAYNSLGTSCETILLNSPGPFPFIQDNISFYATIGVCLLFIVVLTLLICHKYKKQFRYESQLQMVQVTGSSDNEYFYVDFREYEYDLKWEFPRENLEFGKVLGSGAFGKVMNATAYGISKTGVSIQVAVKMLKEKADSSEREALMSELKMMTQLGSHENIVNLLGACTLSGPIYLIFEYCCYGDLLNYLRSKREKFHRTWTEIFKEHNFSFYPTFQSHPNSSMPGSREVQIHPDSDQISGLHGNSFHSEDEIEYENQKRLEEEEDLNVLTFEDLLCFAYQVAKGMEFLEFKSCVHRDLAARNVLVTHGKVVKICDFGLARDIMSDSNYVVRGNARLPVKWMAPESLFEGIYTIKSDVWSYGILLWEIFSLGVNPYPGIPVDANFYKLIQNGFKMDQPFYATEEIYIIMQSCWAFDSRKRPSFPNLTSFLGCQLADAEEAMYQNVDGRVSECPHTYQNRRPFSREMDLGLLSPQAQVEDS
From the text: (§1) Compounds of the present invention were screened for their inhibitory activity against MAP4K4, versus selected off-target hits found with early members of this chemical series. MAP4K4 kinase activity was monitored using the CisBio HTRF Transcreener ADP assay, acompetitive immunoassay with a reproducible Z′>0.6. In the detection step, endogenous ADP and d2-labeled ADP compete for binding an anti-ADP monoclonal antibody labelled with Eu^3+ cryptate. A ratiometric fluorescent read-out is used at 665 and 620 nm. […] Assays were run in Greiner low volume plates with a final reaction volume of 10 μl. The MAP4K4 inhibition data are provided in Table 33 below for selected compounds of the present invention. The data has been categorised based on the IC50 value of the compound as “A”, “B” or “C”.
(§2) The data in Table 34 also provides the fold selectivity of the two compounds in favour of MAP4K4 over the tested kinase. The fold selectivity is indicated in parenthesis.

GCK/MAP4K2 = GCK/MAP4K2 (Homo sapiens (Human), UniProt Q12851); assay: Kinase selectivity panel: GCK/MAP4K2; type: biochemical
From the text: as §1, §2

TNIK/MAP4K7 = TNIK/MAP4K7 (Homo sapiens (Human), UniProt Q9UKE5); assay: Kinase selectivity panel: TNIK/MAP4K7; type: biochemical
From the text: as §1, §2

Aurora B = Aurora B (Homo sapiens (Human), UniProt Q96GD4); assay: Kinase selectivity panel: Aurora B; type: biochemical
Chain of Aurora B (Q96GD4 whole entry): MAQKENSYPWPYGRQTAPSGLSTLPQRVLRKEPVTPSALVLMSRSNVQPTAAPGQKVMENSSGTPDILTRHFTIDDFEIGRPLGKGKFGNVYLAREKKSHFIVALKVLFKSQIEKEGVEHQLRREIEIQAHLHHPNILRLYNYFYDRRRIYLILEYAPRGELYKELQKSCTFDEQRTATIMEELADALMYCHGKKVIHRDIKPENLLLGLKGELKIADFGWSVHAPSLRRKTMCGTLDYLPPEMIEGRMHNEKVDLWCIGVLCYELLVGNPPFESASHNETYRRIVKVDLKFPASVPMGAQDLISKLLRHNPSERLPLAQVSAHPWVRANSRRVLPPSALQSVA
From the text: as §1, §2

GSK3β = GSK3β (Homo sapiens (Human), UniProt P49841); assay: Kinase selectivity panel: GSK3β; type: biochemical
Chain of GSK3β (P49841 whole entry, species assumed): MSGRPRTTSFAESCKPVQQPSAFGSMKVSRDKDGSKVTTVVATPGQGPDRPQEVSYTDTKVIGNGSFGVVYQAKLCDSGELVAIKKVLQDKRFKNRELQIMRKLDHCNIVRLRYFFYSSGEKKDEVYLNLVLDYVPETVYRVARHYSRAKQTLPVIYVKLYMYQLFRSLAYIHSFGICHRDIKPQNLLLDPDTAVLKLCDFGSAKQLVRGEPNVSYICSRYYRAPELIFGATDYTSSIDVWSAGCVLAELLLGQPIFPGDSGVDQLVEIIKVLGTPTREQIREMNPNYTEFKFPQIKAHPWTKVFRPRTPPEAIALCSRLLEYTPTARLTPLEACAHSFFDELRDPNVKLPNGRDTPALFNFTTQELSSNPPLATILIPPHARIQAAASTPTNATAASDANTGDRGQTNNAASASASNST
From the text: as §1, §2

VEGFR = assay: Kinase selectivity panel: VEGFR; type: biochemical
Method: (§3) In the detection step, endogenous ADP and d2-labeled ADP compete for binding an anti-ADP monoclonal antibody labelled with Eu^3+ cryptate. […] Assays were run in Greiner low volume plates with a final reaction volume of 10 μl.
(§4) The fold selectivity is indicated in parenthesis.

MINK1/MAP4K6 = MINK1/MAP4K6 (Homo sapiens (Human), UniProt Q8N4C8); assay: Kinase selectivity panel: MINK1/MAP4K6; type: biochemical
From the text: as §1, §2

MLK1/MAP3K9 = MLK1/MAP3K9 (Homo sapiens (Human), UniProt P80192); assay: Kinase selectivity panel: MLK1/MAP3K9; type: biochemical
From the text: as §1, §2

[6] = mouse, in vivo; for AUCinf: po, 50 mg/kg
GLK/MAP4K3 = GLK/MAP4K3 (Homo sapiens (Human), UniProt Q8IVH8); assay: Kinase selectivity panel: GLK/MAP4K3; type: biochemical
From the text: as §1, §2

MLK3/MAP3K11 = MLK3/MAP3K11 (Homo sapiens (Human), UniProt Q16584); assay: Kinase selectivity panel: MLK3/MAP3K11; type: biochemical
Chain of MLK3/MAP3K11 (Q16584 whole entry): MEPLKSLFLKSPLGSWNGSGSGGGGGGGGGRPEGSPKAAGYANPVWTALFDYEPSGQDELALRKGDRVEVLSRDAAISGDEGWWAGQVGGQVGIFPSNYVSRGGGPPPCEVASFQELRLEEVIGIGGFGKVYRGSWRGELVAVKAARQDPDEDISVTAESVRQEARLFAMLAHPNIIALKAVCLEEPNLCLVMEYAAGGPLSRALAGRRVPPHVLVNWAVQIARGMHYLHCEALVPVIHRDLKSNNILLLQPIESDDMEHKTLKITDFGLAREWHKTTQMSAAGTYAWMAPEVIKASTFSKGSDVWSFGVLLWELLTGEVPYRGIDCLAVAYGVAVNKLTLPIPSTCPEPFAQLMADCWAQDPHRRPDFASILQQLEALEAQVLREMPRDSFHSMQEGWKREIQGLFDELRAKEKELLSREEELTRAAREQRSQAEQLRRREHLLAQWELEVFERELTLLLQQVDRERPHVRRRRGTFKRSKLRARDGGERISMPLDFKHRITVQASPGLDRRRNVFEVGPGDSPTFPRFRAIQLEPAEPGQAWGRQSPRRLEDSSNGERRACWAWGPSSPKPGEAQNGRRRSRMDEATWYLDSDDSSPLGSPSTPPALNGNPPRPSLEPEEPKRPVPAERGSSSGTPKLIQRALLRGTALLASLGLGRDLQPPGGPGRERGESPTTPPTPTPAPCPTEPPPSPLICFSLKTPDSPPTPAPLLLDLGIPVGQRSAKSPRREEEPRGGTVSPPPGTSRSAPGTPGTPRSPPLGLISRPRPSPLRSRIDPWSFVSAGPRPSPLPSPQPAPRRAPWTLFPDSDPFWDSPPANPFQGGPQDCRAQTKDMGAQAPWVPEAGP
From the text: as §1, §2

hiPSC-CMs = assay: Calcium cycling in hiPSC-CMs (Fura-2) under menadione; type: cell-based, human
Method: Calcium cycling, a hallmark of the cardiac phenotype, likewise is susceptible to redox- and phosphorylation-dependent abnormalities. To determine whether MAP4K4 inhibition might preserve calcium homeostasis, hiPSC-CMs were assessed using the intracellular calcium indicator, Fura-2 (FIG. 8B). […] At 50 μM menadione, spontaneous calcium oscillations persisted in only 8 of 24 cultures (33.3%), versus 21 of 24 receiving 10 μM Ex-58 (87.5%; P<0.001).

CorV.4U hiPSC-CMs = assay: Mitochondrial function in CorV.4U hiPSC-CMs after acute oxidative stress (menadione); type: cell-based, human; conditions: 10 μM compound, 15 μM menadione for 2 h
Method: Key aspects of mitochondrial function were monitored in CorV.4U hiPSC-CMs after acute oxidative stress (15 μM menadione for 2 h), with or without Ex-58 (FIG. 8A).

NUAK = assay: Kinase selectivity panel: NUAK; type: biochemical
Method: as §3, §4

[7] = Pharmacokinetics in mice (IV and oral)
KHS/MAP4K5 = KHS/MAP4K5 (Homo sapiens (Human), UniProt Q9Y4K4); assay: Kinase selectivity panel: KHS/MAP4K5; type: biochemical
Chain of KHS/MAP4K5 (Q9Y4K4 whole entry): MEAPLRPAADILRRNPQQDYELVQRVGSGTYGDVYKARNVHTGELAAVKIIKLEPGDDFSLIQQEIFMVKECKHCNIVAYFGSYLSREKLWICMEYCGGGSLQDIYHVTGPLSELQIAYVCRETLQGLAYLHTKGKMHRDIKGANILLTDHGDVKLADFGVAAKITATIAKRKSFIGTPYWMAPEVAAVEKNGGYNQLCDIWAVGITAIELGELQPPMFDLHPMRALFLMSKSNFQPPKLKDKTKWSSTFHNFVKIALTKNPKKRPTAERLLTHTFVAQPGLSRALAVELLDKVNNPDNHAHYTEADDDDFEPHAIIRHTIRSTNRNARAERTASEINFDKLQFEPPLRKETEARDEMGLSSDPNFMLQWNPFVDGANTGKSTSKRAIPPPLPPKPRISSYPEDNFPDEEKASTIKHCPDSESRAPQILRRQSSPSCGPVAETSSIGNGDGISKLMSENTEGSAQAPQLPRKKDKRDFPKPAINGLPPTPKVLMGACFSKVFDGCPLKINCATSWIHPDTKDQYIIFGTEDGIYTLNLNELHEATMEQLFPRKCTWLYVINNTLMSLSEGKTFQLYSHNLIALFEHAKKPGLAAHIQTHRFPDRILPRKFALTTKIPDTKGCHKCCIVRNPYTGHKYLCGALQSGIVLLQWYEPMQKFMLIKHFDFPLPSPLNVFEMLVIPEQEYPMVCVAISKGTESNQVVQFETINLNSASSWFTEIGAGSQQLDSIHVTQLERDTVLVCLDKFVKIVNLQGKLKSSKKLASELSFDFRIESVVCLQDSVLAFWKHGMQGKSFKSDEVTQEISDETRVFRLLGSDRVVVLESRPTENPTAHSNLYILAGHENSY
From the text: as §1, §2

ABL1 = ABL1 (Homo sapiens (Human), UniProt P00519); assay: Kinase selectivity panel: ABL1; type: biochemical
Chain of ABL1 (P00519 whole entry, species assumed): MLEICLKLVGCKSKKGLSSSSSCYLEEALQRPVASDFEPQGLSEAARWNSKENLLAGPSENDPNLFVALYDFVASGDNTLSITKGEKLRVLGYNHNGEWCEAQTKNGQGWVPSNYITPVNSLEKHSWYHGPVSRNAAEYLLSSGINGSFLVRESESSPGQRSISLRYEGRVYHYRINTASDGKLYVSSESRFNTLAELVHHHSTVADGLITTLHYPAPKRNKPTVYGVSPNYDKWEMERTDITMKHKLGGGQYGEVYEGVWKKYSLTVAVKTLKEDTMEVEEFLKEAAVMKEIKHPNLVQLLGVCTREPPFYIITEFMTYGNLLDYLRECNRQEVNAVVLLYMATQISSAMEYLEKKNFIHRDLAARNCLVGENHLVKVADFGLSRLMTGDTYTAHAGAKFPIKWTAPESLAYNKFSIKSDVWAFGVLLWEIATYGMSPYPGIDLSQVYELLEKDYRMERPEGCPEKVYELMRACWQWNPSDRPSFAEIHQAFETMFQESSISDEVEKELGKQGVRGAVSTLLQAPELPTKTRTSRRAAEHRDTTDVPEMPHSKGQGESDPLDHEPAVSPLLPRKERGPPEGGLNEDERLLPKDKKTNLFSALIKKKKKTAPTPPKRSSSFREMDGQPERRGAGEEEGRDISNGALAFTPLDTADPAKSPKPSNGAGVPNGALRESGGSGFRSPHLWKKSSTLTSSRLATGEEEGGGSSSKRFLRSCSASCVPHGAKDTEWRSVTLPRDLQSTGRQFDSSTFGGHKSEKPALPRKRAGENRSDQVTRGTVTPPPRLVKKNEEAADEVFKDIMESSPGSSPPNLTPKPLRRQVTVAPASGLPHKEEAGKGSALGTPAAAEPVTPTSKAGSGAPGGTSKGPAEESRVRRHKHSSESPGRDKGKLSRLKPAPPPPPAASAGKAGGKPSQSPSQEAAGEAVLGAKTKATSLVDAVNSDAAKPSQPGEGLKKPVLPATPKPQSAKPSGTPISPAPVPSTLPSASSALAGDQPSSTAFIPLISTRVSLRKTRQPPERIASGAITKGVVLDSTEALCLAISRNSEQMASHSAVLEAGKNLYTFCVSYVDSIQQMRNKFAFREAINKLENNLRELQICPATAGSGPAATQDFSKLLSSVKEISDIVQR
From the text: as §1, §2

[8] = tested on: iCell cardiomyocytes (hiPSC-CMs); assay: Human cardiac muscle cell death in iCell cardiomyocytes (DRAQ7 uptake); type: cell-based; conditions: 1.25 μM, lowest concentration tested
From the text: First, the expression of cardiomyocyte-specific markers and of MAP4K4 protein was validated (FIG. 5A, B). Two of three shRNAs directed against human MAP4K4 reduced expression >60%, with no extraneous effect on M/NK/MAP4K6 and TN/K/MAP4K7, the most closely related genes (FIG. 5C). Cell death was quantified by high-content analysis (FIG. 5D) as the loss of membrane integrity (DRAQ7 uptake) in successfully transduced (GFP^+) hiPSC-CMs (Myh6-RFP^+). Each of the two potent shRNAs conferred protection against H2O2: myocyte loss was reduced up to 50% (FIG. 5E).
To substantiate the hypothesis that pharmacological inhibition of MAP4K4 would confer resistance to cell death in human cardiomyocytes, cytoprotection was next assessed using hiPSC-CMs. […] Human cardiac muscle cell protection was substantiated in a second, independent line, CorV.4U cardiomyocytes, which are more highly enriched for ventricular myocytes.

[9] = human, read-out: Human PPB % (converted)
[10] = mouse, read-out: Mouse PPB % (converted)
[11] = H2O2 as death trigger, read-out: Protection in human iPSC-derived ventricular cardiomyocytes, EC50 H202

Chain of human MAP4K4 kinase domain (O95819 25-289): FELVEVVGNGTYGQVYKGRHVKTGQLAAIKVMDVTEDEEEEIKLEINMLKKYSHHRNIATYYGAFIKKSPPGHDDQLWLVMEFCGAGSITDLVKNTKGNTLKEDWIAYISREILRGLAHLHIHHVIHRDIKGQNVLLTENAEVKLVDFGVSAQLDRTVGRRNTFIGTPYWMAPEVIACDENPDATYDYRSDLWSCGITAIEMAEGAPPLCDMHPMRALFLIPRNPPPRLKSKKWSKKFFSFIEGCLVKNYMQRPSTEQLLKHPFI

O=c1[nH]cnc2c1c(-c1ccc(OCC3(CO)COC3)cc1)cn2-c1ccccc1 [Ex-54]
IC50 ([1]; read-out: MAP4K4, IC50): 0.004 µM
In vivo efficacy (infarct size/area at risk), reduction [2]: 53% reduction
infarct size in mice (in words) ([2]; mouse, in vivo): Reduction of infarct size
solubility (Formulated solubility): 0.3 mg/mL (≈ 744 µM)
Cyp Inhibition 2C9 (Cyp 2C9): (2C9 8 μM)
resistance to degradation in hepatocyte microsomes (Heps) relative to Ex-58 [3]: superior
Human Heps [3]: 5
Mouse Heps [3]: 25
Pig Heps [3]: 6
Rat Heps [3]: 3
Cyp Inhibition (Cyp): >10 µM
Protection in H9c2 cardiomyocytes, efficacy relative to Ex-58 (H9c2 cardiomyocytes): (0.3)
EC50 (H9c2 cardiomyocytes): 0.199 µM
plasma protein binding (PPB) relative to Ex-58 [4]: superior
fraction unbound [4, 9]: 0.03
fraction unbound [4, 10]: 0.03
Protection in human iPSC-derived ventricular cardiomyocytes, H202, efficacy relative to Ex-58 ([5]; H2O2 as death trigger): (0.9)
EC50 [5, 11]: 0.469 µM
EC50 ([5]; read-out: EC50, protection of human cardiomyocytes): < 1 µM

COCCOc1ccc(-c2cn(-c3ccccc3)c3nc[nH]c(=O)c23)cc1 [Ex-58, 5-[4-(2-Methoxy-ethoxy)-phenyl]-7-phenyl-3,7-dihydro-pyrrolo[2,3-d]pyrimidin-4-one]
fold selectivity for MAP4K4 over FLT3 (FLT3): (1148) fold
pIC50 FLT3 (FLT3): 5.31
fold selectivity for MAP4K4 over GCK/MAP4K2 (GCK/MAP4K2): (112) fold
pIC50 GCK/MAP4K2 (GCK/MAP4K2): 6.50
pIC50 TNIK/MAP4K7 (TNIK/MAP4K7): 7.96
greater potency than F1386-0303 [1]: 10 fold
pIC50 MAP4K4 [1]: 8.55
IC50 ([1]; ATP at Km (10 μM), 0.5 nM kinase domain, 2 h, read-out: MAP4K4): ≤ 0.1 µM
selectivity for MAP4K4 (in words) ([1]; compared to F1386-303, 13 other protein kinases): highly selective
IC50 ([1]; read-out: MAP4K4, IC50): 0.003 µM
fold selectivity for MAP4K4 over Aurora B (Aurora B): (560) fold
pIC50 Aurora B (Aurora B): 5.49
reduction in infarct size as a proportion of the area at ischemic risk ([2]; begun 20 min prior to ischemia): more than 50%
reduction in infarct size as a proportion of the area at ischemic risk ([2]; begun 1 h after reperfusion injury): > 60%
In vivo efficacy (infarct size/area at risk), reduction [2]: 65% reduction
suppression of cardiomyocyte apoptosis (TUNEL) in the jeopardized adjacent myocardium ([2]; post-injury study): 52%
suppression of cardiomyocyte apoptosis (TUNEL) within the infarct ([2]; post-injury study): 39%
fold selectivity for MAP4K4 over GSK3β (GSK3β): (7762) fold
pIC50 GSK3β (GSK3β): 4.66
fold selectivity for MAP4K4 over VEGFR (VEGFR): (675) fold
pIC50 VEGFR (VEGFR): 5.72
pIC50 MINK1/MAP4K6 (MINK1/MAP4K6): 8.18
fold selectivity for MAP4K4 over MLK1/MAP3K9 (MLK1/MAP3K9): (23) fold
pIC50 MLK1/MAP3K9 (MLK1/MAP3K9): 7.19
AUCinf [6]: 63733
fold selectivity for MAP4K4 over GLK/MAP4K3 (GLK/MAP4K3): (3981) fold
pIC50 GLK/MAP4K3 (GLK/MAP4K3): 4.95
fold selectivity for MAP4K4 over MLK3/MAP3K11 (MLK3/MAP3K11): (36) fold
pIC50 MLK3/MAP3K11 (MLK3/MAP3K11): 6.99
cultures with persisting spontaneous calcium oscillations (hiPSC-CMs; 10 μM compound, 50 μM menadione, 21 of 24 cultures): 87.5%
adverse effect on functional parameters (hiPSC-CMs; hiPSC-CMs, mitochondrial function and calcium cycling): no adverse effect
extracellular acidification rate (glycolytic function) (CorV.4U hiPSC-CMs): largely rescued
Human Heps [3]: ≤10
Mouse Heps [3]: 85
Pig Heps [3]: 8
Rat Heps [3]: 10
fold selectivity for MAP4K4 over NUAK (NUAK): (47) fold
pIC50 NUAK (NUAK): 6.88
improvement of free plasma concentration over the earlier compound ([7]; 50 mg kg-1 oral dose, versus F1386-0303): > 80 fold
concentration at 1 h ([7]; mouse, plasma, po, 50 mg kg-1): 0.334 µM
concentration at 10 h ([7]; mouse, plasma, po, 50 mg kg-1): 0.008 µM
Cyp Inhibition (Cyp): >10 µM
fold selectivity for MAP4K4 over KHS/MAP4K5 (KHS/MAP4K5): (153) fold
pIC50 KHS/MAP4K5 (KHS/MAP4K5): 6.36
fold selectivity for MAP4K4 over ABL1 (ABL1): (560) fold
pIC50 ABL1 (ABL1): 5.80
Protection in H9c2 cardiomyocytes, efficacy relative to Ex-58 (H9c2 cardiomyocytes): (1)
EC50 (H9c2 cardiomyocytes): 0.35 µM
fraction unbound [4, 9]: 0.01
fraction unbound [4, 10]: 0.02
protection of human cardiomyocytes (in words) ([5]; CorV.4U cells, H2O2 and menadione, both viability assays): Protection of human cardiomyocytes was substantiated
Protection in human iPSC-derived ventricular cardiomyocytes, H202, efficacy relative to Ex-58 ([5]; H2O2 as death trigger): (1)
EC50 [5, 11]: 0.403 µM

Oc1ncnc2c1c(-c1ccccc1)cn2-c1ccccc1 [F1386-0303, 5,7-diphenyl-7H-pyrrolo[2,3-d]pyrimidin-4-ol, reference compound]
pIC50 FLT3 (FLT3): 5.66
reduction of human cardiac muscle cell death [8]: 50%
pIC50 MAP4K4 [1]: 7.46
IC50 ([1]; read-out: IC50 (MAP4K4)): 0.034 µM
pIC50 Aurora B (Aurora B): 4.88
pIC50 GSK3β (GSK3β): 4.57
clearance and oral exposure in mice (in words) [6]: rapidly cleared and accumulates only to low levels
AUCinf [6]: 2162
pIC50 ABL1 (ABL1): 4.52
protection from H2O2 or menadione ([5]; 10 μM, luminescent cell viability assay, human cardiac troponin assay): virtually complete
